Here are results for eight compounds from patent US11866430B2, “Naphthyridinone compounds useful as T cell activators” (priority 2018, dated 2024).

For one assay, the target named is human DGKα (Homo sapiens (Human), UniProt P23743). In words: DGKα LIPGLO assay (extruded liposome substrate). It counts as biochemical. The method, boiled down: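 Human full-length DGKα, His-tagged and produced in Sf9 cells, assayed at 20 nM (4× stock) on extruded liposomes of PS, 0.25 mM DAG and 2.75 mM PC, preincubated 10 min. Reaction started with 300 μM ATP (stock) and ran 1 h in MOPS pH 7.5/MgCl2/CaCl2/DTT buffer.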
Chain of human DGKα (P23743 other isoform, or with tags, fused parts or gaps): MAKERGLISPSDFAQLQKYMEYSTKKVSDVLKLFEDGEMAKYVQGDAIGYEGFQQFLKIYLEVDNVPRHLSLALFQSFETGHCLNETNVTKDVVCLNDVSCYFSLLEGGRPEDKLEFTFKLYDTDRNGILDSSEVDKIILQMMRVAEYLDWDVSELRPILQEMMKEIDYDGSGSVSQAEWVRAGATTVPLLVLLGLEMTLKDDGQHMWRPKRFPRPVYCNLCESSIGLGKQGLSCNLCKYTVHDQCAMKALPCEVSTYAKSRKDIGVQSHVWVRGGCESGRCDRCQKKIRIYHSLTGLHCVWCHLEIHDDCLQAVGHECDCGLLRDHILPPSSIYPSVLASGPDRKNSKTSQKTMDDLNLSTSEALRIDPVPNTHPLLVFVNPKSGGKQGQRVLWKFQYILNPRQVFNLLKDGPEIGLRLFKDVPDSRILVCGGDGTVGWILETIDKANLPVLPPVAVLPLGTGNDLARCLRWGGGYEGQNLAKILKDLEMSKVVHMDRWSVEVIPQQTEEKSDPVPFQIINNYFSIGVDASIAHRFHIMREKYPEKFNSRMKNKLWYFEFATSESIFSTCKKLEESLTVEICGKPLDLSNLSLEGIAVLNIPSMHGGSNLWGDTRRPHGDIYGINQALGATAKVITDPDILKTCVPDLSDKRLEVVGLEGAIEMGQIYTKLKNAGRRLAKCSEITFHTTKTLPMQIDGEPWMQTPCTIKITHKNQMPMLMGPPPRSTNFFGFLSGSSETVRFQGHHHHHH

In a further assay the target is human DGKζ (Homo sapiens (Human), UniProt Q13574). The assay can be described thus: DGKζ LIPGLO assay (extruded liposome substrate). In kind it is biochemical. The settings on record: extruded liposome substrate; read-out: DGKζ LIPGLO IC50. The method, boiled down:
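Recombinant DGKζ (Sf9-expressed, Ni/SEC/SP-purified) preincubated 10 min with extruded 100 nm PC/DAG/PS liposomes in 50 mM MOPS pH 7.5, 100 mM NaCl, 10 mM MgCl2, 1 μM CaCl2, 1 mM DTT. Started with 300 uM ATP solution (stock, pre-addition); 1 hr reaction. ADP-Glo luminescence; IC50 from 11 concentrations.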

Another assay relates to naïve human CD8 T cells. The assay can be described thus: cells. The settings on record: Homo sapiens, T-cell, read-out: HuCD8 INFG Normalized EC50, anti-CD3 plus anti-CD28 as baseline; 3 μM Example 40 co-stimulation as 100% activation. On the procedure: Frozen naïve human CD8 T cells were thawed in ATM-V media, incubated for 2 h in 37° C., and counted. The 384-well tissue culture plate was coated overnight at 4° C. with 20 μl anti-human CD3 at 0.05 μg/mL in PBS, which was removed off the plate before 40,000 cells per 40 microliters CD8 T cells with 0.1 μg/mL soluble anti-human CD28 were added to each well. The compounds were transferred using an Echo liquid handler to the cell plate immediately after the cells were plated. After 20 h incubation at 37° C. incubator, 3 microliters per well supernatants transferred into a new 384-well white assay plate for cytokine measurement.
Interferon-γ (IFN-γ) was quantitated using the AlphaLISA kit (Cat #AL217) as described by the manufacturer manual (Perkin Elmer). The counts from each well were converted to IFN-γ concentration […].

Chain of human DGKζ (Q13574 other isoform, or with tags, fused parts or gaps): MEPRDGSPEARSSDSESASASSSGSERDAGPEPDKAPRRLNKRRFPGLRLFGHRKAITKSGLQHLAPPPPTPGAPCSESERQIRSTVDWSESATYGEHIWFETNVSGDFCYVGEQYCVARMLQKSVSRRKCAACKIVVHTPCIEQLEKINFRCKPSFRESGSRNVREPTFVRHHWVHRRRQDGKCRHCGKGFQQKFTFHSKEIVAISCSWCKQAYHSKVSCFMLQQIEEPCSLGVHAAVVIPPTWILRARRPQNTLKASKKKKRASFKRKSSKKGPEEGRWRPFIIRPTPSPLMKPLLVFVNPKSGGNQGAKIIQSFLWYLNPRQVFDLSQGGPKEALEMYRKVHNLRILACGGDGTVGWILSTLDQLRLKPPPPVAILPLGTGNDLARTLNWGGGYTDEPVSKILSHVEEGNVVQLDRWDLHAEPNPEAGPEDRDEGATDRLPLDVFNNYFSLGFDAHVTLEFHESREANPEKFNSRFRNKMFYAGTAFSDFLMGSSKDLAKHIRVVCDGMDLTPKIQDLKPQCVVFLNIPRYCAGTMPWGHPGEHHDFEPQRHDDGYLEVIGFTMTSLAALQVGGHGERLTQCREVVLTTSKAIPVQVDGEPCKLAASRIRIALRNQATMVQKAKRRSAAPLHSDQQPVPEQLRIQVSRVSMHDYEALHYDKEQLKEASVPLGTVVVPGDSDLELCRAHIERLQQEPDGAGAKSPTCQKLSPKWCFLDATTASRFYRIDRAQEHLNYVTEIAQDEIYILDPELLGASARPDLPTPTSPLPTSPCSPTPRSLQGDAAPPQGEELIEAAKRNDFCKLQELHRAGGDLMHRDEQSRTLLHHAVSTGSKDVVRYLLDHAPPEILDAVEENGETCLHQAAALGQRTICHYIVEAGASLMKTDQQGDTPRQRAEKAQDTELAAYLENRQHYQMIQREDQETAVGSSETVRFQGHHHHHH

Take `COc1ccc2c(n1)c(N1CCN(C(c3ncccn3)c3ccc(F)cc3OC)CC1)c(C#N)c(=O)n2C` (stereo not drawn) [Example 401, 4-{4-[(4-fluoro-2-methoxyphenyl)(pyrimidin-2-yl)methyl]piperazin-1-yl}-6-methoxy-1-methyl-2-oxo-1,2-dihydro-1,5-naphthyridine-3-carbonitrile]: the IC50 against human DGKα was found to be 81 µM; on human DGKζ it was 7.6 µM. Besides, the EC50 in the assay with naïve human CD8 T cells was determined as 10 µM.

Consider `COc1ccc2c(n1)c(N1CCN(C(c3ccc(F)cc3OC)c3ccc(F)cc3OC)CC1)c(C#N)c(=O)n2C` [Example 402, 4-{4-[bis(4-fluoro-2-methoxyphenyl)methyl]piperazin-1-yl}-6-methoxy-1-methyl-2-oxo-1,2-dihydro-1,5-naphthyridine-3-carbonitrile], for which the figures for the IC50 on human DGKα and on human DGKζ were 160 µM and 3.5 µM, respectively. Further, in the assay with naïve human CD8 T cells, the concentration for a half-maximal effect (EC50) amounted to 1.78 µM.

As for `COc1ccc2c(n1)c(N1CCN(C(c3ccc(F)cc3)c3ccccn3)CC1)c(C#N)c(=O)n2C` (stereo not drawn) [Example 403, 4-{4-[(4-fluorophenyl)(pyridin-2-yl)methyl]piperazin-1-yl}-6-methoxy-1-methyl-2-oxo-1,2-dihydro-1,5-naphthyridine-3-carbonitrile], the half-maximal inhibitory concentration (IC50) was found to be 26 µM against human DGKα and 5.7 µM at human DGKζ. In the assay on naïve human CD8 T cells, the EC50 came to 1.49 µM.

For `COc1cccnc1C(c1ccc(F)cc1)N1CCN(c2c(C#N)c(=O)n(C)c3ccc(C#N)nc23)CC1` (stereo not drawn) [Example 410, 8-{4-[(4-fluorophenyl)(3-methoxypyridin-2-yl)methyl]piperazin-1-yl}-5-methyl-6-oxo-5,6-dihydro-1,5-naphthyridine-2,7-dicarbonitrile], the IC50 on human DGKα is 5.4 µM; at human DGKζ it was 2.2 µM. In addition, in the assay on naïve human CD8 T cells, the EC50 was determined as 0.09 µM.

With `Cn1c(=O)c(C#N)c(N2CCN(C(c3ccccc3)c3ccc(F)cc3)CC2)c2nc(C#N)ccc21` (stereo not drawn) [Example 411, 8-{4-[(4-fluorophenyl)(phenyl)methyl]piperazin-1-yl}-5-methyl-6-oxo-5,6-dihydro-1,5-naphthyridine-2,7-dicarbonitrile], the IC50 at human DGKα stood at 4.9 µM; on human DGKζ, 1.4 µM. The EC50 in the assay on naïve human CD8 T cells amounted to 0.02 µM.

As for `Cn1c(=O)c(C#N)c(N2CCN([C@@H](c3ccccc3)c3ccc(Cl)cc3)CC2)c2nc(C#N)ccc21` [Example 414, 8-{4-[(S)-(4-chlorophenyl)(phenyl)methyl]piperazin-1-yl}-5-methyl-6-oxo-5,6-dihydro-1,5-naphthyridine-2,7-dicarbonitrile], the IC50 is 9 µM against human DGKα and 1.5 µM on human DGKζ. Also, the EC50 in the assay on naïve human CD8 T cells is 0.16 µM.

For the compound `COc1cc(C)ccc1C(c1ccc(F)cc1)N1CCN(c2c([N+](=O)[O-])c(=O)n(C)c3ccc(C#N)nc23)CC1` (stereo not drawn) [Example 416, 8-{4-[(4-fluorophenyl)(2-methoxy-4-methylphenyl)methyl]piperazin-1-yl}-5-methyl-7-nitro-6-oxo-5,6-dihydro-1,5-naphthyridine-2-carbonitrile], the IC50 at human DGKα amounted to 4.8 µM; at human DGKζ, 0.91 µM. The EC50 in the assay with naïve human CD8 T cells amounted to 0.03 µM.

On to `Cn1c(=O)cc(N2CCN(C(c3ccc(F)cc3)c3ccc(F)cc3)CC2)c2nc(C#N)ccc21` [Example 432, 8-{4-[bis(4-fluorophenyl)methyl]piperazin-1-yl}-5-methyl-6-oxo-5,6-dihydro-1,5-naphthyridine-2-carbonitrile], for which the results for the IC50 at human DGKα and on human DGKζ were above 240 µM and 5.4 µM, respectively. Also, in the assay with naïve human CD8 T cells, the EC50 was found to be 0.06 µM.

A word on the IC50: it is the concentration that gives 50% inhibition. What is called EC50 is the concentration that produces a half-maximal response.
